Data: patent US20220132852A1, “PESTICIDALLY ACTIVE HETEROCYCLIC DERIVATIVES WITH SULFUR CONTAINING SUBSTITUENTS” (SYNGENTA CROP PROTECTION AG, priority 2019, published 2022)
Like-named read-outs stand apart in the source and are kept apart here. Each block holds one molecule with its values, some of them ahead of it.

Legend:
[1] = system: Tetranychus urticae (Two-Spotted Spider Mite); assay: Example B9: Activity against Tetranychus urticae (two-spotted spider mite); type: in vivo; settings: foliar, 192 h, read-out: mortality on mixed population (mobile stages)
Description: Example B9: Activity Against Tetranychus urticae (Two-Spotted Spider Mite)
Bean leaf discs on agar in 24-well microtiter plates were sprayed with aqueous test solutions prepared from 10′000 ppm DMSO stock solutions. After drying the leaf discs were infested with a mite population of mixed ages. The samples were assessed for mortality on mixed population (mobile stages) 8 days after infestation.

[2] = system: Euschistus heros (Neotropical Brown Stink Bug); assay: Example B2: Activity against Euschistus heros (neotropical brown stink bug), sprayed soybean leaves; type: in vivo; settings: 120 h, application rate 200 ppm, N2 nymphs on sprayed soybean leaves, 5 days after infestation, read-out: effect in at least one of the two categories (mortality or growth inhibition)
Description: Example B2: Activity Against Euschistus heros (Neotropical Brown Stink Bug)
Soybean leaves on agar in 24-well microtiter plates were sprayed with aqueous test solutions prepared from 10′000 ppm DMSO stock solutions. After drying the leaves were infested with N2 nymphs. The samples were assessed for mortality and growth inhibition in comparison to untreated samples 5 days after infestation.

[3] = system: Myzus persicae (Green Peach Aphid); assay: whole plant or invertebrate; type: in vivo; settings: foliar, 144 h, application rate 200 ppm, sprayed sunflower leaf discs, mixed ages, 6 days after infestation
Description: Example B4: Activity Against Myzus persicae (Green Peach Aphid) Feeding/Contact Activity
Sunflower leaf discs were placed onto agar in a 24-well microtiter plate and sprayed with aqueous test solutions prepared from 10′000 ppm DMSO stock solutions. After drying, the leaf discs were infested with an aphid population of mixed ages. The samples were assessed for mortality 6 days after infestation.

[4] = system: Spodoptera littoralis (Egyptian Cotton Leaf Worm); assay: Example B6: Activity against Spodoptera littoralis (Egyptian cotton leaf worm); type: in vivo; settings: foliar, 72 h, application rate 200 ppm, L1 larvae on sprayed cotton leaf discs, 3 days after infestation, read-out: control (mortality, anti-feeding effect or growth inhibition)
Summary of the method: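 Cotton leaf discs on agar were sprayed with aqueous test solutions prepared from 10'000 ppm DMSO stocks. After drying, each disc was infested with five L1 larvae. Mortality, anti-feeding and growth inhibition were scored against untreated samples 3 days after infestation.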

[5] = system: Frankliniella occidentalis (Western Flower Thrips); assay: Example B8: Activity against Frankliniella occidentalis (western flower thrips); type: in vivo; settings: foliar, 168 h, application rate 200 ppm, sprayed sunflower leaf discs, mixed ages, 7 days after infestation
Description: Example B8: Activity Against Frankliniella occidentalis (Western Flower Thrips)
Sunflower leaf discs were placed on agar in 24-well microtiter plates and sprayed with aqueous test solutions prepared from […] stock solutions. After drying the leaf discs were infested with a Frankliniella population of mixed ages. The samples were assessed for mortality 7 days after infestation.

[6] = system: Plutella xylostella (Diamond Back Moth); assay: Example B3: Activity against Plutella xylostella (diamond back moth), artificial diet; type: in vivo; settings: 192 h, application rate 200 ppm, eggs on artificial diet, 8 days after infestation, read-out: effect in at least one of the two categories (mortality or growth inhibition)
[7] = system: Diabrotica balteata (Corn Root Worm); assay: Example B1: Activity against Diabrotica balteata (corn root worm), sprayed maize sprouts; type: in vivo; settings: 96 h, application rate 200 ppm, L2 larvae on sprayed maize sprouts, 4 days after infestation, read-out: effect in at least one of the two categories (mortality or growth inhibition)
Description: Example B1: Activity Against Diabrotica balteata (Corn Root Worm)
Maize sprouts placed onto an agar layer in 24-well microtiter plates were treated with aqueous test solutions prepared from 10′000 ppm DMSO stock solutions by spraying. After drying, the plates were infested with L2 larvae (6 to 10 per well). The samples were assessed for mortality and growth inhibition in comparison to untreated samples 4 days after infestation.

melting point: 181 to 185 °C
SMILES: CCSc1ccc[n+]([O-])c1-c1cc2ccn(CC(F)(F)C(F)(F)F)c2cn1 [PN2, 5-(3-ethylsulfanyl-1-oxido-pyridin-1-ium-2-yl)-1-(2,2,3,3,3-pentafluoropropyl) pyrrolo[2,3-c]pyridine]

SMILES: CCSc1cc(C(C)(C)C#N)c[n+]([O-])c1-c1cc2ccn(CC(F)(F)C(F)(F)F)c2cn1 [PN6, 2-[5-ethylsulfanyl-1-oxido-6-[1-(2,2,3,3,3-pentafluoropropyl)pyrrolo[2,3-c]pyridin-5-yl]pyridin-1-ium-3-yl]-2-methyl-propanenitrile]
mortality at 200 ppm ([1]; application rate 200 ppm, sprayed bean leaf discs, 8 days after infestation): ≥ 80%

SMILES: CCS(=O)(=O)c1ccc(C2CC2)nc1-c1cc2cnn(CC(F)(F)C(F)(F)F)c2cn1 [Compound P26, 5-(6-cyclopropyl-3-ethylsulfonyl-2-pyridyl)-1-(2,2,3,3,3,- pentafluoropropyl) pyrazolo[3,4-c]pyridine]
percent effect (mortality or growth inhibition) at 200 ppm [2]: ≥ 80%
mortality at 200 ppm [3]: ≥ 80%
percent control (mortality, anti-feedant effect or growth inhibition) at 200 ppm [4]: ≥ 80%
mortality at 200 ppm [1]: ≥ 80%
mortality at 200 ppm [5]: ≥ 80%
percent effect (mortality or growth inhibition) at 200 ppm [6]: ≥ 80%
percent effect (mortality or growth inhibition) at 200 ppm [7]: ≥ 80%

melting point: 185 to 188 °C
SMILES: CCSc1ccc(Cl)nc1-c1cc2ccn(CC(F)(F)C(F)(F)F)c2cn1 [Compound P48, 5-(6-chloro-3-ethylsulfanyl-2-pyridyl)-1-(2,2,3,3,3-pentafluoropropyl) pyrrolo[2,3-c]pyridine]
